We go through 14 compounds from patent US20100305120A1, “COMPOUNDS FOR TREATING MUSCULAR DYSTROPHY” (BIOMARIN IGA LIMITED, priority 2008, published 2010).

The test system of the experiment is Utrophin A promoter linked to a luciferase reporter gene. Briefly: Luciferase reporter assay (murine H2K cells), H2K/mdx/Utro A reporter cell line. The class given is cell-based. Conditions: 48 h; test compound concentration 10 μM; mdx mouse H2K Utrophin A reporter cells; read-out: Activity (luciferase level relative to control). The protocol: Luciferase Reporter Assay (Murine H2K Cells)
The cell line used for the screen is an immortalized mdx mouse H2K cell line that has been stably transfected with a plasmid containing ≈5 kb fragment of the Utrophin A promoter including the first untranslated exon linked to a luciferase reporter gene.
Under conditions of low temperature and interferon containing media, the cells remain as myoblasts. These are plated into 96 well plates and cultured in the presence of compound for three days. The level of luciferase is then determined by cell lysis and reading of the light output from the expressed luciferase gene utilising a plate luminometer.
Luciferase Assay for 96 Well Plates
The H2K/mdx/Utro A reporter cell line cells were plated out into 96 well plates (Falcon 353296, white opaque) at a density of approximately 5000 cells/well in 190 μl normal growth medium. The plates were then incubated at 33° C. in the presence of 10% CO2 for 24 hrs.
Compounds were dosed by adding 10 μl of diluted compound to each well giving a final concentration of 10 μM (where a different final concentration was required, the amount of compound solution added was amended accordingly). The plates were then incubated for a further 48 hrs. Cells were then lysed in situ following the manufacture's protocols (Promega Steady-Glo Luciferase Assay System(E2520). Then counted for 10 seconds using a plate luminometer (Victor1420).
Compounds for screening were stored at −20° C. as 10 mM stocks in 100% DMSO until required.
Biological activity as assessed using the luciferase reporter assay in murine H2K cells, and the results are shown in Table 1, which also lists the concentration of the test compound solution in μM.
As for `CS(=O)(=O)c1ccc(Cn2nc(C(=O)Nc3ccc4ccccc4c3)c3ccccc32)cc1` [Compound 116, 1-(4-(methylsulfonyl)benzyl)-N-(naphthalen-2-yl)-1H-indazole-3-carboxamide], the activity at 10 µM was 201 to 300%.

With `C#CCN(C)S(=O)(=O)c1ccc(Cn2nc(C(=O)Nc3ccc(C(C)C)cc3)c3ccccc32)cc1` [Compound 66, N-(4-isopropylphenyl)-1-(4-(N-methyl-N-(prop-2-ynyl)sulfamoyl)benzyl)-1H-indazole-3-carboxamide], the activity at 10 µM is less than 200%.

Consider `Cc1csc(NC(=O)c2nn(Cc3ccc(S(C)(=O)=O)cc3)c3ccccc23)n1` [Compound 126, 1-(4-(methylsulfonyl)benzyl)-N-(4-methylthiazol-2-yl)-1H-indazole-3-carboxamide], for which the activity at 10 µM is less than 200%.

Turning to `COc1ccc(NC(=O)c2nn(Cc3ccc(C(=O)N4CCOCC4)cc3)c3ccccc23)cc1` [Compound 144, N-(4-methoxyphenyl)-1-(4-(morpholine-4-carbonyl)benzyl)-1H-indazole-3-carboxamide], the activity at 10 µM lay in the range of 301 to 400%.

As for `O=C(Nc1ccc2c(c1)OCO2)c1nn(Cc2ccc(C(=O)N3CCCCC3)cc2)c2ccccc12` [Compound 93, N-(benzo[d][1,3]dioxol-5-yl)-1-(4-(piperidine-1-carbonyl)benzyl)-1H-indazole-3-carboxamide], the activity at 10 µM was less than 200%.

For `CS(=O)(=O)c1ccc(Cn2nc(C(=O)Nc3ccccn3)c3ccccc32)cc1` [Compound 77, 1-(4-(methylsulfonyl)benzyl)-N-(pyridin-2-yl)-1H-indazole-3-carboxamide], the activity at 10 µM was less than 200%.

`CS(=O)(=O)c1ccc(Cn2nc(C(=O)Nc3ccccc3)c3ccccc32)cc1` [Compound 83, N-phenyl-1-(4-(methylsulfonyl)benzyl)-1H-indazole-3-carboxamide]: the activity at 10 µM is less than 200%.

As to `Cc1ccc(NC(=O)c2nn(Cc3ccc(S(C)(=O)=O)cc3)c3ccccc23)nc1` [Compound 134, N-(5-methylpyridin-2-yl)-1-(4-(methylsulfonyl)benzyl)-1H-indazole-3-carboxamide], the activity at 10 µM was less than 200%.

As for `Cc1ccc2c(c1)c(NC(=O)Nc1ccccc1C(C)C)nn2Cc1cc2c(cc1Cl)OCO2` [Compound 13, 1-(1-((6-chlorobenzo[d][1,3]dioxol-5-yl)methyl)-5-methyl-1H-indazol-3-yl)-3-(2-isopropylphenyl)urea], the activity at 10 µM was less than 200%.

Consider `O=C(Nc1ccc2c(c1)OCO2)c1nn(Cc2ccc(C(F)(F)F)cc2)c2ccccc12` [Compound 115, N-(benzo[d][1,3]dioxol-5-yl)-1-(4-(trifluoromethyl)benzyl)-1H-indazole-3-carboxamide], for which the activity at 10 µM is less than 200%.

`CN(C)C(=O)c1cccc(Cn2nc3ccccc3c2C(=O)Nc2ccc3c(c2)OC(F)(F)O3)c1` [Compound 135, N-(2,2-difluorobenzo[d][1,3]dioxol-5-yl)-2-(3-(dimethylcarbamoyl)benzyl)-2H-indazole-3-carboxamide]: the activity at 10 µM fell in the range of 201 to 300%.

For the compound `O=C(Nc1ccc2c(c1)OC(F)(F)C(F)(F)O2)c1nn(Cc2ccc(C(=O)N3CCOCC3)cc2)c2ccccc12` [Compound 161, 1-(4-(morpholine-4-carbonyl)benzyl)-N-(2,2,3,3-tetrafluoro-2,3-dihydrobenzo[b][1,4]dioxin-6-yl)-1H-indazole-3-carboxamide], the activity at 10 µM fell in the range of 201 to 300%.

`COc1ccc(NC(=O)c2nn(Cc3ccc(S(C)(=O)=O)cc3)c3ccccc23)cc1OC` [Compound 82, N-(3,4-dimethoxyphenyl)-1-(4-(methylsulfonyl)benzyl)-1H-indazole-3-carboxamide]: the activity at 10 µM was less than 200%.

Turning to `CCN(CC)C(=O)c1ccc(Cn2nc(C(=O)Nc3ccc4c(c3)OCO4)c3ccccc32)cc1` [Compound 151, N-(benzo[d][1,3]dioxol-5-yl)-1-(4-(diethylcarbamoyl)benzyl)-1H-indazole-3-carboxamide], the activity at 10 µM is less than 200%.
